Test results as given in US9511073B2, “Aromatic amides and uses thereof” (TAXIS Pharmaceuticals, Inc., priority 2011, dated 2016).
In brackets after ≈: the same amount, converted by molar mass. Like-named read-outs stand apart in the source and are kept apart here.

Tests used:
[1] = test system: FtsZ-G196A Staphylococcus aureus (Isolate ID GG/190723/sa/1.2); test: Bacterial assay: MIC, FtsZ G196A mutant strain; type: cell-based
Experimental: (§1) Compounds are tested for antimicrobial activity by susceptibility testing in liquid or on solid media. Minimum inhibitory concentrations (MICs) for compounds against each strain are determined by the broth microdilution or agar dilution method according to the guidelines of the Clinical Laboratories and Standards Institute, formerly the National Committee for Clinical Laboratory Standards (Clinical Laboratories and Standards Institute. Methods for Dilution Antimicrobial Susceptibility Tests for Bacteria That Grow Aerobically; Approved Standard—Seventh Edition. Document M7-A7. CLSI, Wayne, Pa., 2006; Clinical Laboratories and Standards Institute). The bacterial strains tested include S. aureus (Staphylococcus aureus (Isolate ID ATCC 29213)) and an FtsZ mutant of this isolate (FtsZ-G196A Staphylococcus aureus (Isolate ID GG/190723/sa/1.2)). Compound MICs were determined to be in the following activity ranges “A” activity≦0.25 μg/mL; “B” activity>0.25 μg/mL-1.0 μg/mL; “C” activity>1.0 μg/mL-16 μg/mL; “D” activity>16 μg/mL and ND=not determined. The bracketed entries indicate entantiomer(s) and their activity.
The comparative activity of selected compounds having a bromo-substituted oxazole against their corresponding non-brominated analogues is shown in Table 4.

[2] = test system: Staphylococcus aureus (Isolate ID ATCC 29213); test: Bacterial assay: MIC by broth microdilution or agar dilution (CLSI), S. aureus ATCC 29213; type: cell-based; conditions: Staphylococcus aureus
Procedure, shortened: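 Activity is binned (A ≤0.25 μg/mL; B >0.25–1.0; C >1.0–16; D >16 μg/mL) from MICs determined per CLSI by broth microdilution or agar dilution, on S. aureus ATCC 29213 plus an FtsZ-G196A mutant strain.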

[3] = Pharmacokinetic assay: plasma concentration by LC/MS/MS after single intravenous or peroral dose of 3 mg/kg; type: in vivo; conditions: 3 mg/kg IV dosing in mice
Experimental: The pharmacokinetic profiles of selected comparator compounds A-N in Table 6 and compounds of the invention were determined by measuring the compound concentration in plasma by LC/MS/MS following a single intravenous or peroral administration of the compounds at a dose of 3 mg/kg. The concentrations described are the mean plasma concentrations at each time point from three animals. Intravenous dose formulation was administered as a single bolus dose through the tail vein. Oral dose formulation was administered to animals by an oral gavage needle. In both cases the dose volume was 5.0 mL/kg. Blood was collected from anesthetized mice through a capillary guided into the retro-orbital plexus. The collected blood was centrifuged to obtain plasma and the compounds extracted into methanol prior to determining the compound concentration by LC/MS/MS. The results are shown graphically in FIG. 1 and for the AUC and CL parameters in Table 6.

[4] = test system: S. aureus ATCC BAA-44 (MDRSA); test: microbe, parasite or virus in culture; type: cell-based; conditions: Staphylococcus aureus, ATCCBAA44
Experimental: as §1
(§2) Selected compounds were also tested against a panel of target strains and their MICs are shown in Table 3 against the gold standard Linezolid. […] The activity of the compounds observed against S. aureus was also shown to be maintained within a narrow range across the staphylococcal panel tested.

[5] = test system: S. aureus ATCC 43300 (MRSA); test: microbe, parasite or virus in culture; type: cell-based; conditions: Staphylococcus aureus
Experimental: as §1, §2

[6] = test system: S. saprophyticus ATCC 43809; test: MIC, staphylococcal panel; type: cell-based; conditions: Staphylococcus saprophyticus, ATCC43809
Experimental: as §1, §2

[7] = test system: S. haemolyticus ATCC 29970; test: MIC, staphylococcal panel; type: cell-based; conditions: Staphylococcus haemolyticus, ATCC29970
Experimental: as §1, §2

S. warneri ATCC 49454 = test: MIC, staphylococcal panel; type: cell-based; conditions: Staphylococcus warneri, ATCC49454
Experimental: as §1, §2

S. hominis ATCC 27844 = test: MIC, staphylococcal panel; type: cell-based; conditions: Staphylococcus hominis, ATCC27844
Experimental: as §1, §2

[8] = test system: S. aureus ATCC 19636 (Smith); test: MIC, staphylococcal panel; type: cell-based; conditions: Staphylococcus aureus, ATCC19636
Experimental: as §1, §2

[9] = test system: S. lugdunensis ATCC 43809; test: MIC, staphylococcal panel; type: cell-based; conditions: Staphylococcus lugdunensis, ATCC43809
Experimental: as §1, §2

[10] = test system: S. epidermidis ATCC 12228; test: MIC, staphylococcal panel; type: cell-based; conditions: Staphylococcus epidermidis, ATCC12228
Experimental: as §1, §2

[11] = read-out: MIC (μg/mL) G196A mutant strain
[12] = ATCC29213, read-out: MIC (μg/mL) S. aureus (ATCC29213), Table 5, racemate and enantiomers
[13] = ATCC29213, read-out: S. aureus MIC (μg/mL) Activity Range, S. aureus (ATCC29213)
[14] = read-out: MIC (μg/mL) FtsZ G196A mutant strain
[15] = ATCC29213, Staphylococcus aureus ATCC 29213, Table 3 panel

Row | Structure (SMILES) | MIC [1, 11] | MIC [2, 12] | MIC [2, 13] | MIC [1, 14] | also measured
1 | NC(=O)c1c(F)ccc(O[C@@H](CO)c2nc(-c3ccc(F)cc3F)c(Br)o2)c1F [Compound 233A, (S)-3-(1-(5-bromo-4-(2,4-difluorophenyl)oxazol-2-yl)-2-hydroxyethoxy)-2,6-difluorobenzamide] | > 256 µg/mL | 32 µg/mL (≈ 67.3 µM) | > 16 µg/mL |  | 
2 | COc1ccc(-c2nc([C@H](C)Oc3ccc(F)c(C(N)=O)c3F)oc2Br)cc1 [Compound 5A] | > 256 µg/mL | 16 µg/mL (≈ 35.3 µM) | 1 to 16 µg/mL (≈ 2.21 to 35.3 µM) |  | 
3 | NC(=O)c1c(F)ccc(OC(CO)c2nc(-c3ccc(C(F)(F)F)cc3)c(Br)o2)c1F (racemic) [Compound 38, 3-(1-(5-bromo-4-(4-(trifluoromethyl)phenyl)oxazol-2-yl)-2-hydroxyethoxy)-2,6-difluorobenzamide] | 4 µg/mL (≈ 7.89 µM) | 0.25 µg/mL (≈ 0.493 µM) | < 0.25 µg/mL |  | AUC [3]: 6700 ng·h/mL; clearance ([3]; mouse, plasma): 7 mL/min/kg
4 | NC(=O)c1c(F)ccc(O[C@H](CO)c2nc(-c3ccc(F)cc3F)c(Br)o2)c1F [Compound 233B, (R)-3-(1-(5-bromo-4-(2,4-difluorophenyl)oxazol-2-yl)-2-hydroxyethoxy)-2,6-difluorobenzamide] | 8 µg/mL (≈ 16.8 µM) | 0.25 µg/mL (≈ 0.526 µM) | < 0.25 µg/mL |  | 
5 | NC(=O)c1c(F)ccc(OC(CNC(=O)c2ccccc2)c2nc(-c3ccc(C(F)(F)F)cc3)co2)c1F (stereo not shown) [Compound 289, 3-(2-benzamido-1-(4-(4-(trifluoromethyl)phenyl)oxazol-2-yl)ethoxy)-2,6-difluorobenzamide] |  |  | 1 to 16 µg/mL (≈ 1.88 to 30.1 µM) | > 256 µg/mL | 
6 | COc1ccc(-c2coc([C@@H](C)Oc3ccc(F)c(C(N)=O)c3F)n2)cc1 [Compound 268B] |  |  | 1 to 16 µg/mL (≈ 2.67 to 42.7 µM) | > 256 µg/mL | 
7 | COC(=O)NCC(Oc1ccc(F)c(C(N)=O)c1F)c1nc(-c2ccc(C(F)(F)F)cc2)co1 (stereo not shown) [Compound 287, methyl (2-(3-carbamoyl-2,4-difluorophenoxy)-2-(4-(4-(trifluoromethyl)phenyl)oxazol-2-yl)ethyl)carbamate] |  |  | > 16 µg/mL | > 256 µg/mL | 
8 | NC(=O)c1c(F)ccc(OC(CO)c2nc(-c3ccc(F)cc3F)c(Br)o2)c1F (racemic) [Compound 233, 3-(1-(5-bromo-4-(2,4-difluorophenyl)oxazol-2-yl)-2-hydroxyethoxy)-2,6-difluorobenzamide] | 8 µg/mL (≈ 16.8 µM) | 0.25 µg/mL (≈ 0.526 µM) | < 0.25 µg/mL |  | MIC [4]: 0.25 µg/mL (≈ 0.526 µM); MIC [5]: 0.5 µg/mL (≈ 1.05 µM); MIC [6]: 0.5 µg/mL (≈ 1.05 µM); MIC [7]: 0.5 µg/mL (≈ 1.05 µM); MIC (S. warneri ATCC 49454): 0.5 µg/mL (≈ 1.05 µM); MIC (S. hominis ATCC 27844): 0.5 µg/mL (≈ 1.05 µM); MIC [8]: 0.25 µg/mL (≈ 0.526 µM); MIC [9]: 0.5 µg/mL (≈ 1.05 µM); MIC [10]: 0.5 µg/mL (≈ 1.05 µM); clearance ([3]; mouse, plasma): 18 mL/min/kg; AUC ([3]; mouse, plasma, read-out: AUC): 2300 ng·h/mL; MIC [2, 15]: 0.25 µg/mL (≈ 0.526 µM)
9 | CC(=O)NC[C@H]1CN(c2ccc(N3CCOCC3)c(F)c2)C(=O)O1 [Linezolid, reference compound] |  |  |  |  | MIC ([4]; S. aureus ATCC BAA-44 (MDRSA), read-out: MIC): 1 µg/mL (≈ 2.96 µM); MIC ([5]; S. aureus ATCC 43300 (MRSA), read-out: MIC): 2 µg/mL (≈ 5.93 µM); MIC ([6]; S. saprophyticus ATCC 43809, read-out: MIC): 2 µg/mL (≈ 5.93 µM); MIC ([7]; S. haemolyticus ATCC 29970, read-out: MIC): 1 µg/mL (≈ 2.96 µM); MIC (S. warneri ATCC 49454; S. warneri ATCC 49454, read-out: MIC): 2 µg/mL (≈ 5.93 µM); MIC (S. hominis ATCC 27844; S. hominis ATCC 27844, read-out: MIC): 1 µg/mL (≈ 2.96 µM); MIC ([8]; S. aureus ATCC 19636 (Smith), read-out: MIC): 2 µg/mL (≈ 5.93 µM); MIC ([9]; S. lugdunensis ATCC 43809, read-out: MIC): 1 µg/mL (≈ 2.96 µM); MIC ([10]; S. epidermidis ATCC 12228, read-out: MIC): 1 µg/mL (≈ 2.96 µM); MIC ([2]; ATCC29213, Staphylococcus aureus ATCC 29213, Table 3 panel, read-out: MIC): 2 µg/mL (≈ 5.93 µM)
10 | C[C@@H](Oc1ccc(F)c(C(N)=O)c1F)c1nc(-c2ccc(C(F)(F)F)cc2)co1 [Compound 183, (R)-2,6-difluoro-3-(1-(4-(4-(trifluoromethyl)phenyl)oxazol-2-yl)ethoxy)benzamide] |  |  | 1 to 16 µg/mL (≈ 2.43 to 38.8 µM) | > 256 µg/mL | 
11 | NC(=O)c1c(F)ccc(O[C@H](CO)c2nc(-c3ccc(C(F)(F)F)cc3)c(Br)o2)c1F (single isomer, unassigned) [Compound 38B] | 2 µg/mL (≈ 3.94 µM) | 0.125 µg/mL (≈ 0.246 µM) | < 0.25 µg/mL |  | MIC [4]: 0.125 µg/mL (≈ 0.246 µM); MIC [5]: 0.125 µg/mL (≈ 0.246 µM); MIC [6]: 0.06 µg/mL (≈ 0.118 µM); MIC [7]: 0.125 µg/mL (≈ 0.246 µM); MIC (S. warneri ATCC 49454): 0.25 µg/mL (≈ 0.493 µM); MIC (S. hominis ATCC 27844): 0.125 µg/mL (≈ 0.246 µM); MIC [8]: 0.125 µg/mL (≈ 0.246 µM); MIC [9]: 0.25 µg/mL (≈ 0.493 µM); MIC [10]: 0.125 µg/mL (≈ 0.246 µM); clearance ([3]; mouse, plasma): 12 mL/min/kg; AUC ([3]; mouse, plasma, read-out: AUC): 4000 ng·h/mL; MIC [2, 15]: 0.125 µg/mL (≈ 0.246 µM)
12 | COc1ccc(-c2nc([C@@H](C)Oc3ccc(F)c(C(N)=O)c3F)oc2Br)cc1 [Compound 5B] | 16 µg/mL (≈ 35.3 µM) | 0.5 µg/mL (≈ 1.1 µM) | 0.25 to 1 µg/mL (≈ 0.552 to 2.21 µM) | 16 µg/mL (≈ 35.3 µM) | 
13 | C[C@@H](Oc1ccc(F)c(C(N)=O)c1F)c1nc(-c2ccc(C(F)(F)F)cc2)c(Br)o1 [Compound 184, (R)-3-(1-(5-bromo-4-(4-(trifluoromethyl)phenyl)oxazol-2-yl)ethoxy)-2,6-difluorobenzamide] |  |  | < 0.25 µg/mL | 0.5 µg/mL (≈ 1.02 µM) | 
14 | COc1ccc(-c2nc(C(C)Oc3ccc(F)c(C(N)=O)c3F)oc2Br)cc1 (racemic) [Compound 5] | 32 µg/mL (≈ 70.6 µM) | 1 µg/mL (≈ 2.21 µM) | 0.25 to 1 µg/mL (≈ 0.552 to 2.21 µM) |  | 
15 | NC(=O)c1c(F)ccc(O[C@@H](CO)c2nc(-c3ccc(C(F)(F)F)cc3)c(Br)o2)c1F (single isomer, unassigned) [Compound 38A] | 64 µg/mL (≈ 126 µM) | 16 µg/mL (≈ 31.5 µM) | 1 to 16 µg/mL (≈ 1.97 to 31.5 µM) |  | clearance ([3]; mouse, plasma): 6 mL/min/kg; AUC ([3]; mouse, plasma, read-out: AUC): 7800 ng·h/mL
